Data set [1] relates to Varroa jacobsoni. Kind of data set: Comparative test, lethal dosage for varroa mites. It counts as in vivo. The conditions noted are these: for LD50 in μg active ingredient/bee: oral, 10 μl sucrose suspension. The source says:
Compounds (I), (A) and (B) are formulated in accordance with Example F-1.
The age distribution of the bees in the test group is identical with that in a normal hive. The bees used in the laboratory tests originate from colonies only slightly infested with nosema. All groups of bees are infected with varroatosis (Varroa jacobsoni). To test the tolerance by the bees and the acaricidal activity in the group, 40 bees from the same colony are placed with their brood in each cage. To achieve a better control, each cage is fitted with a pane of glass. A small piece of honeycomb (6×8 cm) is attached at the top of each cage to pacify the bees. During the test period, the bees are kept in a climatic chamber at 25° C. and 85% relative humidity. These conditions are chosen because they are maximally acceptable both for the mites and the bees: the parasitizing mites are least affected and the bees live sufficiently long. To test the systemic activity of the active substance, 4 bees--within a group of 40 bees--are each individually fed with 10 μl of a suspension of the active substance in a 50% aqueous solution of sucrose. The bees have not been fed for at least one hour so that feed with a higher dose can be more readily ingested. 3 to 4 doses are tested in each of 2 groups. In each test series, 2 groups are left untreated as controls.
24 and 48 hours after treatment, the activity on varroa mites is determined on the basis of mite mortality. For this purpose a tray (mesh width=2.4 mm) is fixed above the floor of each of the test cages. The mites which have dropped off the bees can thus be collected on paper which had been placed under the tray. 72 hours after treatment, the bees are sacrificed and then washed in benzine to determine the number of mites which have remained on them (method of determining the number of remaining mites according to Ritter, Apidologie, 1980, 11(2), 131-141).
Percentage mite mortality can be determined from the number of mites which have remained on the bees and the number which have dropped off. Using the Probit analysis (Cavalli-Sforza, Biometrie, G. Frischer Verlag, Stuttgart), the LD50 can be determined from the dosage-mortality curve.

The subject of data set [2] is bees. Kind of data set: Wetting method in the beehive, bees killed (tolerability). It counts as in vivo, honey bee. As for the experimental part: (§1) Six brood-less nuclei [small, manmade colonies of bees with usually 1000 to perhaps 5000 bees; see Morse and Hooper (1985), supra, Nucleus colony, p. 279] infested with varroa mites are treated three times, at intervals of 4 days, with a 0.5% aqueous solution of 2-(2,4-dimethylphenylimino)-3-methylthiazoline. The active substance is dissolved in the form of a concentrate formulation in water. 5 ml of the active substance solution are dropped onto a number of bees present in the bee ways of a beehive. The test is terminated 4 days after the last treatment, that is after a duration of 12 days. The mites and bees which have died in the course of the test are collected on a bottom tray covered with gauze, which has been inserted under the combs before commencement of the test. At the end of the test, the bees are killed, and the mites remaining on them are washed out in benzine and counted. For the evaluation, the number of dead mites and bees collected during the test is determined, the fact being taken into consideration that for the length of time of the test a natural mortality rate of about 0.5% of bees is to be expected.

In a further data set the test system is Tropilaelaps clareae. The conditions noted are these: Thailand, 10 colonies each, four products; dose rates proposed for Varroa-mite-treatment; cited from earlier work.
Data set [3] relates to bees. Kind of data set: Tests under natural conditions, bee mortality rate. It counts as in vivo, honey bee. The conditions noted are these: overall; in the range of the untreated control group; 30240 min. The source says: 33 brood-less bee colonies (~20,000 bees) infested with varroa mites are divided into three groups and treated with 2-(2,4-dimethylphenylimino)-3-methylthiazoline in solutions of varying concentration, originating in one case from a 15% emulsion concentrate (EC-15) and in the other case from a 15% water-soluble powder (SP-15). In the latter case, the active ingredient I is in the form of a salt (cf. Formulation Examples).
All three groups A, B and C, each consisting of 11 colonies, receive during the time of treatment the same total amount of active ingredient.
In the following the applied amounts per bee way are given. Depending on the size of the bee colony, a beehive contains between 5 and 15 bee ways, so that the amount of active ingredient applied is correspondingly adjusted from hive to hive.
In each case 5 ml of a 4% aqueous solution or emulsion per bee way are sprayed onto a number of selected bees. The remaining bees provide for a uniform distribution of the active ingredient in the colony. The partial wetting procedure is repeated after 7 days and after 14 days (observation period 21 days). […]
The mites and bees that have died during and after the treatment are collected daily from a bottom tray. 21 days after the first application, the bee colonies are killed and the remaining number of mites is then determined (observation period 21 days).

Data set [4] has as its system varroa mites. In words: Feeding method in the laboratory, varroa mite mortality. It counts as in vivo. The conditions noted are these: 7 days. As to the method:
Thirty bees infested with varroa mites are each individually fed with 10 μl of a sugar-containing solution of 2-(2,4-dimethylphenylimino)-3-methylthiazoline. […] After being fed, the bees are kept in groups each of 10 for 7 days in cages. The mites which in the course of the test have fallen off dead are collected in trays placed under the individual cages. The bees are subsequently killed and are examined for remaining mites. The counting of the mites that have fallen down and those remaining on the bees is carried out after 7 days.

Data set [5] relates to varroa mites. In words: Wetting method in the beehive, mites killed. Particulars: 0.5% aqueous solution, 5 ml dropped, three times at 4-day intervals; 12 days. It counts as in vivo. As for the experimental part:
as §1

For data set [6], the system named is Varroa jacobsoni. The conditions noted are these: Thailand, 10 colonies each, four products; manufacturers' dose rates for Varroa-mite-treatment; cited from earlier work.
In data set [7] the test system is Acarapis woodi. Kind of data set: Package bee colonies infested with Acarapis woodi, mite survival. It counts as in vivo. As to the method:
(§2) Forty-two packages of honey bees (2 lbs.~907 g) are obtained from 22 colonies infested with Acarapis woodi. Infestations range from 60 to 100%. Each package is provided with a mated queen and 550 ml of treated or untreated 50% (wt/wt) sucrose syrup. All treated colonies receive syrup containing either 0.5 mg/ml (group B) or 1.0 mg/ml (group C) of 2-(2,4-dimethylphenylimino)-3-methyl-4-thiazoline hydrochloride. The control (group A) consists of 10 packages of bees and the treatment groups B and C of 16 packages each.
(§3) After installation on frames free of nectar and pollen, package colonies are examined at weekly intervals to determine food consumption, brood production and bee mortality. Random samples of ten bees/colony are examined on days 5, 12, 19, 26, 33 and 40. On day 0 and 5 bees are examined. Dissections and live mite determinations are made according to Eischen et al. (Am. Bee J. 127: 99-101, 1987).

The next data set concerns honey bees. Kind of data set: Package bee colonies, brood production and food consumption. It counts as in vivo, honey bee. Particulars: 0.5 mg/ml and 1.0 mg/ml; more pronounced at the higher concentration. As to the method:
as §2, §3

The subject of data set [8] is Acarapis woodi. In words: Honey-bee colonies in northeastern Mexico, parasite load. It counts as in vivo. Particulars: 0.3 mg/ml in syrup, three times weekly, P<0.05. As to the method: (§4) Three groups of honey-bee colonies (N=30) located in northeastern Mexico are selected on the basis of the prevalence of Acarapis woodi parasitizing their workers. Lightly (≤10%), moderately (20-60%), and heavily (90-100%) infested colonies are randomly assigned to control or treated subgroups (N=15). Controls receive 50% sucrose syrup, and treated colonies receive syrup medicated with 0.3 mg/ml 2-(2,4-dimethylphenylimino)-3-methyl-4-thiazoline-hydrochloride, small, medium, and large colonies receive 300, 600, and 1000 ml of syrup, respectively. Syrup is fed three times at weekly intervals.

The next data set concerns honey-bee colonies. In words: Honey-bee colonies in northeastern Mexico, bee population. It counts as in vivo. The conditions noted are these: end of the test; P<0.05. As for the experimental part: as §4

Turning to `CCn1ccsc1=Nc1ccc(C)cc1C` [Compound (A)], the “LD50 in μg active ingredient/bee” value in the data set with Varroa jacobsoni [1] (24 hours after application) and with Varroa jacobsoni [1] (48 hours after application) was 35 μg active ingredient/bee in each case.

As for `Cc1cccc(C)c1N=c1sccn1C` [Compound (B)], the “LD50 in μg active ingredient/bee” value in the data set on Varroa jacobsoni [1] (24 hours after application) and in the data set with Varroa jacobsoni [1] (48 hours after application) was 28 μg active ingredient/bee in each case.

With `Cc1ccc(N=c2sccn2C)c(C)c1` [Compound (I), 2-(2,4-dimethylphenylimino)-3-methylthiazoline], the “Killed organisms in %: bees” value in the data set with bees [2] (0.5% aqueous solution, 5 ml dropped, three times at 4-day intervals, 12 days, natural mortality about 0.5% expected) amounted to 0.4%. In the data set with bees [2] (compared with expected range and untreated control group), the “mortality of the bees during the test” value was “exactly within the expected range and does not differ from the mortality of the untreated control group”. The “comparative efficacy against Tropilaelaps clareae” value in the data set with Tropilaelaps clareae is “best product against both mites”. Further, the “mortality of the treated bees” value with bees [3] was “about 1%”. The Fallen mites in the data set on varroa mites [4] (10 μl sugar solution fed per bee, 30 bees, total mites 35) was 34. For the same molecule, in the data set with varroa mites [4] (10 μl sugar solution fed per bee), the “Mortality rate in % (mites)” value is 97%. In the data set on varroa mites [4] (feeding method in the laboratory), the “killing of parasitizing mites” value is listed as “killing nearly all of the parasitizing mites”. In addition, the “Killed organisms in %: mites” value in the data set on varroa mites [5] amounted to 91.8%. The results for the “LD50 in μg active ingredient/bee” value in the data set on Varroa jacobsoni [1] (24 hours after application) and in the data set with Varroa jacobsoni [1] (48 hours after application) were 17 μg active ingredient/bee and 13 μg active ingredient/bee, respectively. For the same molecule, the “activity against varroa mites versus compounds (A) and (B)” value in the data set on Varroa jacobsoni [1] (varroacidal test) is listed as “significantly better activity against varroa mites”. Moreover, in the data set with Varroa jacobsoni [6], the “comparative efficacy against Varroa jacobsoni” value is on record as “best product against both mites”.

Regarding `Cc1ccc(N=c2sccn2C)c(C)c1.Cl` [2-(2,4-dimethylphenylimino)-3-methyl-4-thiazoline hydrochloride], in the data set on Acarapis woodi [7] (0.5 mg/ml and 1.0 mg/ml in syrup), the “time at which efficacy is apparent” value turned out to be 7 days. Moreover, in the data set with Acarapis woodi [7] (after 26 days), the control of mites entry was “almost complete control of mites”. In addition, in the data set with Acarapis woodi [7] (groups B (0.5 mg/ml) and C (1.0 mg/ml) in syrup, after 14 days), the Mite survival entry was “less than 1 live mite/trachea”. In the data set on Acarapis woodi [7] (groups B (0.5 mg/ml) and C (1.0 mg/ml), after 26 days), the “live mites found in the tracheae of treated package bees” value is given as “no live mites”. Moreover, in the data set with honey bees, the “effect on honey bee larvae (spotty brood patterns)” value is “detrimental to some honey bee larvae as spotty brood patterns are observed in several colonies”. Also, the parasite load score came to 0.63 in the data set on Acarapis woodi [8] (heavily infested (90-100%), control 1.13); 0.53 in the data set with Acarapis woodi [8] (lightly infested (≤10%), control 2.25); 0.84 with Acarapis woodi [8] (moderately infested (20-60%), control 3.43). For the same molecule, the “bee population of medicated colonies versus controls” value with honey-bee colonies is reported as “significantly larger bee populations than controls”.
